From ChEMBL document CHEMBL1201862, “PubChem BioAssay data set” (2004)
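Method: 48-hour compound exposure of cells in 96-well plates, five concentrations, linear interpolation of endpoints. GI50 is the concentration that inhibits growth by half.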 Activity calls are given as the source filed them. Rule as the data show it: active = GI50 up to about 1.1 µM and inactive = higher.

Assays:
Assay in all cases: growth of human tumour cells (NCI), 48 h
A549 = system: A549
COLO 205 = system: COLO 205
EKVX = system: EKVX
HCC 2998 = system: HCC 2998
HT-29 = system: HT-29
IGROV-1 = system: IGROV-1
KM12 = system: KM12
NCI-H226 = system: NCI-H226
NCI-H522 = system: NCI-H522
OVCAR-5 = system: OVCAR-5
OVCAR-8 = system: OVCAR-8
RPMI-8226 = system: RPMI-8226
SF-539 = system: SF-539
SK-MEL-28 = system: SK-MEL-28
SK-MEL-5 = system: SK-MEL-5
SK-OV-3 = system: SK-OV-3
T47D = system: T47D
U-251 = system: U-251
UACC-257 = system: UACC-257
UACC-62 = system: UACC-62

Structure (SMILES)	GI50 (A549)	GI50 (COLO 205)	GI50 (EKVX)	GI50 (HCC 2998)	GI50 (HT-29)	GI50 (IGROV-1)	GI50 (KM12)	GI50 (NCI-H226)	GI50 (NCI-H522)	GI50 (OVCAR-5)	GI50 (OVCAR-8)	GI50 (RPMI-8226)	GI50 (SF-539)	GI50 (SK-MEL-28)	GI50 (SK-MEL-5)	GI50 (SK-OV-3)	GI50 (T47D)	GI50 (U-251)	GI50 (UACC-257)	GI50 (UACC-62)
Cc1cc(S(=O)(=O)Nc2n[nH]c(-c3ccc(Cl)cn3)n2)c(S)cc1Cl	62.7 µM (inactive)	> 100 µM (inactive)	> 100 µM (inactive)	57.5 µM (inactive)	39.3 µM (inactive)	44.4 µM (inactive)	36.3 µM (inactive)	33.4 µM (inactive)	46.1 µM (inactive)	> 100 µM (inactive)	48.8 µM (inactive)	> 100 µM (inactive)	44.1 µM (inactive)	> 100 µM (inactive)	44.4 µM (inactive)	88.3 µM (inactive)	31 µM (inactive)	39 µM (inactive)	> 100 µM (inactive)	48.6 µM (inactive)
CC1CC(C)C2=NOS3=C2C1=NO3 (stereo not given)	> 100 µM (inactive)	72.6 µM (inactive)	40 µM (inactive)	> 100 µM (inactive)	> 100 µM (inactive)	58.7 µM (inactive)	> 100 µM (inactive)	> 100 µM (inactive)	> 100 µM (inactive)	> 100 µM (inactive)	> 100 µM (inactive)	> 100 µM (inactive)	> 100 µM (inactive)	> 100 µM (inactive)	30.8 µM (inactive)	> 100 µM (inactive)	> 100 µM (inactive)	> 100 µM (inactive)	> 100 µM (inactive)	79.8 µM (inactive)
COc1ccc(NC(=O)CC(=O)NNC(Sc2ccccc2)c2cc(/N=N/c3ccc(Br)cc3)ccc2O)cc1 (stereo not given)	> 10 µM (inactive)	> 10 µM (inactive)	> 10 µM (inactive)	> 10 µM (inactive)	> 10 µM (inactive)	> 10 µM (inactive)	> 10 µM (inactive)	2.74 µM (inactive)	> 10 µM (inactive)	> 10 µM (inactive)	> 10 µM (inactive)	> 10 µM (inactive)	> 10 µM (inactive)	> 10 µM (inactive)	> 10 µM (inactive)	> 10 µM (inactive)	> 10 µM (inactive)	> 10 µM (inactive)	> 10 µM (inactive)	> 10 µM (inactive)
COC1CC(C)([N+](=O)[O-])C(O)C(C)O1 (stereo not given)	> 100 µM (inactive)	> 100 µM (inactive)	> 100 µM (inactive)	> 100 µM (inactive)	> 100 µM (inactive)	> 100 µM (inactive)	> 100 µM (inactive)	> 100 µM (inactive)	> 100 µM (inactive)	> 100 µM (inactive)	> 100 µM (inactive)	> 100 µM (inactive)	> 100 µM (inactive)	> 100 µM (inactive)	> 100 µM (inactive)	> 100 µM (inactive)	> 100 µM (inactive)	> 100 µM (inactive)	> 100 µM (inactive)	> 100 µM (inactive)
Cc1cc(C)c2c(=N)c3ccccc3n(CCCCCCO)c2n1	3.3 µM (inactive)	1.35 µM (inactive)	2.82 µM (inactive)	2.81 µM (inactive)	1.03 µM (active)	2.09 µM (inactive)	3.94 µM (inactive)	3.87 µM (inactive)	1.44 µM (inactive)	4.91 µM (inactive)	1.17 µM (inactive)	1.38 µM (inactive)	2.33 µM (inactive)	5.71 µM (inactive)	2.55 µM (inactive)	5.2 µM (inactive)	2.94 µM (inactive)	3.51 µM (inactive)	4.75 µM (inactive)	2.64 µM (inactive)
CCC(=O)O[C@H]1CC[C@H]2[C@@H]3CCC4=C/C(=N/NC(=O)c5cccc6c(=O)c7ccccc7[nH]c56)CC[C@]4(C)[C@H]3CC[C@]12C	> 25 µM (inactive)	> 25 µM (inactive)	> 25 µM (inactive)	> 25 µM (inactive)	> 25 µM (inactive)	> 25 µM (inactive)	> 25 µM (inactive)	> 25 µM (inactive)	> 25 µM (inactive)	> 25 µM (inactive)	> 25 µM (inactive)	> 25 µM (inactive)	> 25 µM (inactive)	> 25 µM (inactive)	> 25 µM (inactive)	> 25 µM (inactive)	> 25 µM (inactive)	> 25 µM (inactive)	> 25 µM (inactive)	> 25 µM (inactive)
O=c1c(NO)c([N+](=O)[O-])cnn1-c1ccccc1	18.5 µM (inactive)	3.62 µM (inactive)	11.6 µM (inactive)	5.47 µM (inactive)	2.6 µM (inactive)	21.1 µM (inactive)	9.62 µM (inactive)	7.87 µM (inactive)	1.97 µM (inactive)	7.28 µM (inactive)	2.63 µM (inactive)	4.93 µM (inactive)	15.2 µM (inactive)	3.43 µM (inactive)	6 µM (inactive)	7.01 µM (inactive)	1.83 µM (inactive)	3.12 µM (inactive)	6.37 µM (inactive)	4.2 µM (inactive)
